Measured values taken from patent US20050119197A1, “Naadp analogues for modulating t-cell activity” (priority 2000, published 2005).

Assays:
Assay type in all cases: cell-based, human
[1] = tested on: Jurkat T cells; test: Ca^2+ signals in single intact Jurkat T-lymphocytes microinjected with compound (ratiometric Fura2 Ca^2+ imaging); conditions: for Ca^2+ signal after microinjection: 1 mM extracellular Ca^2+
Protocol: Jurkat T-lymphocytes were loaded with Fura2/AM and Ca^2+ was measured as detailed under ‘Experimental Procedures’. Cells were injected as described in Experimental Procedures’ in the presence of 1 mM extacellular Ca^2+. Data are presented as overlays of single tracings of individual cells (left panel). […] As a control vehicle buffer without NAADP^+ was injected (A,B). The time point of microinjection is indicated by arrows.
Data from FIG. 1 are shown as mean values (n=5 to 17) from time point 80 sec (Ca^2+ peak; A) or 400 sec (Ca^2+ plateau; B).
Jurkat T-lymphocytes were loaded with Fura2/AM and ratiometric Ca^2+ imaging and parallel microinjection in the presence of 1 mM extracellular Ca^2+ was carried out as detailed under ‘Experimental Procedures’. Cells were injected with 50 nM NAADP^+ (A) or NADP^+ (B). Shown are the averages from 13 (A) and 5 (B) cells. The time point of microinjection is indicated by arrows.
Jurkat T lymphocytes (subclone JMP) were cultured in RPMI 1640 medium containing the following additions: Glutamax I, HEPES (20 mM, pH 7.4), NCS (7.5%), penicillin (100 U/ml) and streptomycin (50 μg/ml; all obtained from Life Technologies, Eggenstein, Germany). The cells were cultured at 37° C. in a humidified atmosphere in the presence of 5% CO2.
Batches of 10^7 Jurkat T cells were loaded with Fura2/AM as described (Guse et al., 1993). Fura2-loaded cells (10^7 cells/5 ml) were kept at room temperature until use. Glass coverslips were coated first with bovine serum albumin (5 mg/ml), and then with poly-L-lysine (0.1 mg/ml). Small chambers consisting of a rubber O-ring were sealed on the coverslips by silicon grease. Then 90 μl of extracellular buffer (140 mM NaCl, 5 mM KCl, 1 mM MgSO4, 1 mM CaCl2, 20 mM Hepes, 1 mM NaH2PO4, 5.5 mM glucose, pH 7.4) was added, followed by addition of 10 μl cell suspension. The coverslip was mounted on the stage of an inverted microscope (Axiovert 100, Zeiss, Oberkochingen, Germany). Ratiometric Ca^2+-imaging was performed using a PhotoMed/Photon Technology (Wedel, Germany) digital imaging system built around the Axiovert 100 microscope. Illumination at 340 and 380 nm was carried out using a chopper/optical filter system. Images were captured by an intensified CCD camera (type C2400-77; spatial resolution: 525×487 pixel; Hamamatsu, Garching, Germany) and stored as individual 340 and 380 images on harddisk. Sampling rate was usually 5 sec for a pair of images (340 and 380 nm) using 100-fold magnification. Data analysis was performed off-line using PhotoMed/Photon Technology (Wedel, Germany) “Image master” analysis software. Ratio images (340/380) were constructed pixel by pixel, and changes in the ratio over time were measured by applying “regions-of-interest” on individual cells. Finally, ratio values were converted to Ca^2+-concentrations by external calibration.
Parallel Ca^2+ imaging and microin ection experiments require a firm attachment of the Jurkat T cells without preactivation of intracellular Ca^2+-signaling. This was achieved by the above mentioned coating procedure of the glass coverslips, as detailed earlier (Guse et al., 1997). The cells were kept in a small chamber (100 μl volume) in extracellular buffer (140 mM NaCl, 5 mM KCl, 1 mM MgSO4, 1 mM CaCl2, 20 mM Hepes, 1 mM NaH2PO4, 5.5 mM glucose, pH 7.4). Compounds to be microinjected were cleared from particles by either filtration through 0.45 μm filters, by centrifugation in an Eppendorf centrifuge at maximal speed for 10 min, or by both. Femtotips II (Eppendorf-Netheler-Hintz, Hamburg, Germany) were filled with 5 μl of reagent solution and inserted into the semi-automatic Eppendorf microinjection system (Transjector 5246, Micromanipulator 5171, Eppendorf-Netheler-Hintz, Hamburg, Germany). Injection parameters were: injection pressure: 80 hPa, compensatory pressure: 40 hPa, duration of injection: 0.5 sec, velocity of pipette: 700 μm/sec, pipette angle: 45°. Injections were performed into the upper part of the cell.

[2] = tested on: NAADP^+-mediated Ca^2+-signaling; test: Co-injection of antagonists with NAADP^+: influence on NAADP^+-mediated Ca^2+-signaling in Jurkat T-lymphocytes
Protocol: (§1) Jurkat T-lymphocytes were loaded with Fura2/AM and ratiometric Ca^2+ imaging and parallel microinjection in the presence of 1 mM extracellular Ca^2+ was carried out as detailed under ‘Experimental Procedures’. […] Shown are (n=number of experiments): A/F, coinjection of NAADP (50 nM) and 8-OCH3-cADPR (100 μM) (n=7); B/G, injection of NAADP^+ (50 nM, n=10); C/H, coinjection of NAADP^+ (10 μM) and cADPR (10 μM) (n=7); D/I, coinjection of NAADP^+ (50 nM) and cADPR (10 μM) (n=5); E/J, injection of cADPR (10 μM, n=5).
(§2) Jurkat T-lymphocytes were loaded with Fura2/AM and ratiometric Ca^2+ imaging and parallel microinjection in the presence of 1 mM extracellular Ca^2+ was carried out as detailed under ‘Experimental Procedures’. […] Shown are: A/F, coinjection of NAADP^+ (50 nM) and […] (40 μM) (n=7); B/G, injection of NAADP^+ (50 nM) (n=10); C/H, coinjection of NAADP^+ (10 μM) and Ins(1,4,5)P3 (4 μM) (n=9); D/I, coinjection of NAADP^+ (50 nM) and Ins(1,4,5)P3 (4 μM) (n=3); E/J injection of Ins(1,4,5)P3 (4 μM; n=8)
Batches of 10^7 Jurkat T cells were loaded with Fura2/AM as described (Guse et al., 1993). Fura2-loaded cells (10^7 cells/5 ml) were kept at room temperature until use. Glass coverslips were coated first with bovine serum albumin (5 mg/ml), and then with poly-L-lysine (0.1 mg/ml). Small chambers consisting of a rubber O-ring were sealed on the coverslips by silicon grease. Then 90 μl of extracellular buffer (140 mM NaCl, 5 mM KCl, 1 mM MgSO4, 1 mM CaCl2, 20 mM Hepes, 1 mM NaH2PO4, 5.5 mM glucose, pH 7.4) was added, followed by addition of 10 μl cell suspension. The coverslip was mounted on the stage of an inverted microscope (Axiovert 100, Zeiss, Oberkochingen, Germany). Ratiometric Ca^2+-imaging was performed using a PhotoMed/Photon Technology (Wedel, Germany) digital imaging system built around the Axiovert 100 microscope. Illumination at 340 and 380 nm was carried out using a chopper/optical filter system. […] Ratio images (340/380) were constructed pixel by pixel, and changes in the ratio over time were measured by applying “regions-of-interest” on individual cells. […]

[3] = tested on: Jurkat T cells; test: Ca^2+ signals in single intact Jurkat T-lymphocytes microinjected with compound (ratiometric Fura2 Ca^2+ imaging); conditions: 50 nM microinjected; nominal Ca^2+-free buffer; data not shown
[4] = tested on: OKT3-mediated Ca^2+-signaling (TCR/CD3 complex); test: Effect of microinjected NAADP^+ on OKT3-induced Ca^2+ signaling in single Jurkat T-lymphocytes
Protocol: Jurkat T-lymphocytes were loaded with Fura2/AM and ratiometric Ca^2+ imaging and parallel microinjection in the presence of 1 mM extracellular Ca^2+ was carried out as detailed under ‘Experimental Procedures’. The cells were injected with different concentrations of NAADP^+ and then OKT3(10 μg/ml) was added. Injection of intracellular buffer (A), NAADP^+ (50 nM [B] and 10 μM [C]), and addition of OKT3 is indicated by arrows. Data are presented as a typical tracing from one individual cell, for each condition at least 3 experiments were carried out.
(§3) Batches of 10^7 Jurkat T cells were loaded with Fura2/AM as described (Guse et al., 1993). Fura2-loaded cells (10^7 cells/5 ml) were kept at room temperature until use. Glass coverslips were coated first with bovine serum albumin (5 mg/ml), and then with poly-L-lysine (0.1 mg/ml). Small chambers consisting of a rubber O-ring were sealed on the coverslips by silicon grease. Then 90 μl of extracellular buffer (140 mM NaCl, 5 mM KCl, 1 mM MgSO4, 1 mM CaCl2, 20 mM Hepes, 1 mM NaH2PO4, 5.5 mM glucose, pH 7.4) was added, followed by addition of 10 μl cell suspension. The coverslip was mounted on the stage of an inverted microscope (Axiovert 100, Zeiss, Oberkochingen, Germany). […] Ratio images (340/380) were constructed pixel by pixel, and changes in the ratio over time were measured by applying “regions-of-interest” on individual cells. […]

[5] = tested on: Ins(1,4,5)P3-mediated Ca^2+-release; test: Co-injection of NAADP^+ with Ins(1,4,5)P3 in Jurkat T-lymphocytes
Protocol: as §2, §3

[6] = tested on: cADPR-mediated Ca^2+-signal; test: Co-injection of NAADP^+ with cADPR in Jurkat T-lymphocytes
Protocol: as §1, §3

[7] = Ins(1,4,6)PS3 40 μM co-injected with NAADP^+ 50 nM, vs NAADP^+ alone

nicotinamide-adenine dinucleotide phosphate [NADP^+]
Ca^2+ signal after microinjection ([1]; pipette concentration 50 nM): completely without effect

COc1nc2c(=N)n3cnc2n1C1OC(COP(=O)(O)OP(=O)(O)OCC2OC3C(O)C2O)C(O)C1O (stereo not drawn) [8-OCH3-cADPR]
effect on NAADP^+-mediated Ca^2+-signaling ([2]; 8-OCH3-cADPR 100 μM co-injected with NAADP^+ 50 nM): did not significantly affect

OC1C(O)C(OP(O)(O)=S)C(OP(O)(O)=S)C(O)C1OP(O)(O)=S (stereo not drawn) [Ins(1,4,6)PS3]
decay of the initial Ca^2+ peak of NAADP^+-mediated signal [2, 7]: faster decay
effect on initial Ca^2+ peak of NAADP^+-mediated signal [2, 7]: partial reduction

Nc1ncnc2c1ncn2[C@@H]1O[C@H](COP(=O)(O)OP(=O)(O)OCC2OC([n+]3cccc(C(=O)[O-])c3)C(O)C2O)[C@@H](O)[C@H]1OP(=O)(O)O (stereo in doubt) [NAADP^+, nicotinic acid adenine dinucleotide phosphate]
high initial Ca^2+-spike in nominal Ca^2+-free extracellular buffer [3]: massively reduced
effect on OKT3-mediated Ca^2+-signal ([4]; NAADP^+ 50 nM microinjected prior to OKT3 10 μg/ml): did not significantly change
effect on OKT3-mediated Ca^2+-signaling ([4]; NAADP^+ 10 μM (desensitizing) microinjected before OKT3 10 μg/ml): dramatic inhibition
longlasting Ca^2+-signal as measured at 400 s ([1]; 100 nM, Ca^2+ plateau, FIG. 2B): only minor changes
optimal concentration for the initial Ca^2+-peak (bell shaped dose response curve) ([1]; Ca^2+ peak at 80 sec, FIG. 2A): 100 nM
Ca^2+ signal after microinjection ([1]; pipette concentration 0.1 nM): without effect in most of the cells
Ca^2+ signal after microinjection ([1]; pipette concentration 1 nM): without effect in most of the cells
Ca^2+ signal after microinjection ([1]; pipette concentration 10 nM): stimulated repetitive, longlasting Ca^2+ spiking of low amplitude
Ca^2+ signal after microinjection ([1]; pipette concentration 10 nM, listed as NAADP+): evokes repetitive and longlasting Ca^2+ oscillations of low amplitude
Ca^2+ signal after microinjection ([1]; pipette concentration 50 nM): an initial, rapidly occurring Ca^2+-peak with a high amplitude
Ca^2+ signal after microinjection ([1]; pipette concentration 50 nM, listed as NAADP+): a rapid and high initial Ca^2+ peak followed by trains of smaller Ca^2+ oscillations
Ca^2+ signal after microinjection ([1]; pipette concentration 100 nM): a rapid and high initial Ca^2+ peak followed by trains of smaller Ca^2+ oscillations
Ca^2+ signal after microinjection ([1]; pipette concentration 1 μM): gradually reduce the initial Ca^2+ peak
Ca^2+ signal after microinjection ([1]; pipette concentration 10 μM): gradually reduce the initial Ca^2+ peak
Ca^2+ signal after microinjection ([1]; pipette concentration 100 μM): no signal was detectable
Ca^2+ signal after microinjection ([1]; pipette concentration 100 μM, listed as NAADP+): complete self-inactivation of Ca^2+-signals
Ca^2+ signal on co-injection with Ins(1,4,5)P3 ([5]; NAADP^+ 50 nM co-injected with Ins(1,4,5)P3 4 μM): high initial Ca^2+ peak
effect on Ins(1,4,5)P3-mediated Ca^2+-release ([5]; NAADP^+ 10 μM (desensitizing) co-injected with Ins(1,4,5)P3 4 μM): almost complete inhibition
effect on cADPR-mediated Ca^2+ signals ([6]; NAADP^+ 50 nM co-injected with cADPR 10 μM): did not significantly change
effect on cADPR-mediated Ca^2+-signal ([6]; NAADP^+ 10 μM (self-desensitizing) co-injected with cADPR 10 μM): massive decrease
